Assay [1] addresses T1, human recombinant serotonin (5-Hydroxytryptamine) 5-HT2C receptor (Homo sapiens, UniProt P28335).
T1 construct: expressed in transfected cells; host or cells: CHO-K1 cells
T1 sequence (P28335 33-458): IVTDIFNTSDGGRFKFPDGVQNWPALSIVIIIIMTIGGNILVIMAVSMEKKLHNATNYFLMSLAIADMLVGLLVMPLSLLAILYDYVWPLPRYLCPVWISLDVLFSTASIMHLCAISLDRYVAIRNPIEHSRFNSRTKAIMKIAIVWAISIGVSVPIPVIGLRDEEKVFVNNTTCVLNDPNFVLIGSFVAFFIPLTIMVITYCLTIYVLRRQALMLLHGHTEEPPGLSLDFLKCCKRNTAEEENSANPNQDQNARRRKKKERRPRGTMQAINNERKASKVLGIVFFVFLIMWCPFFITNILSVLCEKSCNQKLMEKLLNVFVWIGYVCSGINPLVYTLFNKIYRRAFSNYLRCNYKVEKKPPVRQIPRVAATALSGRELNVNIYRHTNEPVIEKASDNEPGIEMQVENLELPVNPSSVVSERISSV
The experiment in a line: Serotonin 5-HT2C radioligand binding ([3H]Mesulergine). The note with it: percent inhibition of specific binding. Set-up: Inhibition of ligand binding, Ser. 5-HT2C: concentration or dose not given beside the values. The method, then: Compounds of the invention were incubated with 1 nM [^3H]Mesulergine for 60 minutes at 25° C. Non-specific binding was estimated in the presence of 1 μM Mianserin. Receptor proteins were filtered and washed, the filters were then counted to determine [^3H]Mesulergine specifically bound. […] Biochemical assay results are presented as the percent inhibition of specific binding in Table 6.

For assay [2], the target named is T2, Serotonin (5-Hydroxytryptamine) 5-HT7 (Homo sapiens, UniProt P34969).
T2 construct: expressed in transfected cells; host or cells: CHO cells
T2 sequence (P34969 whole entry): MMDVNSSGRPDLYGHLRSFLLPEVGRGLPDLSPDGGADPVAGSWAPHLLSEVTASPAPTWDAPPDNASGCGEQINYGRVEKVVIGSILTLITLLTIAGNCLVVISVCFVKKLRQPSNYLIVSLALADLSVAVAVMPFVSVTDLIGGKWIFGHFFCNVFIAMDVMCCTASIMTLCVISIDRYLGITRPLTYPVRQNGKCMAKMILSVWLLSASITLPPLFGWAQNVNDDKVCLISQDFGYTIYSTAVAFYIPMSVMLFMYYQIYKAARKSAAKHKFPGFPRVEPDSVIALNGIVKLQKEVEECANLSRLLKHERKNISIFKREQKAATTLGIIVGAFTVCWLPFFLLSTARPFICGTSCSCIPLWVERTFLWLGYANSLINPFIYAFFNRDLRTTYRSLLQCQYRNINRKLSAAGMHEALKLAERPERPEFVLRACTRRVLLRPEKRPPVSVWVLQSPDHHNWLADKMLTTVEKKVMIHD
As to the kind of experiment: Serotonin 5-HT7 radioligand binding ([3H]LSD). The arrangement: Inhibition of ligand binding, Ser. 5-HT7: concentration or dose not given beside the values. Conditions: percent inhibition of specific binding. How it is done: Lysergic acid diethylamide (LSD) for 2 hours at 25° C. […] Receptor proteins were filtered and washed, the filters were then counted to determine [^3H]LSD specifically bound. […] Biochemical assay results are presented as the percent inhibition of specific binding in Table 6.

For assay [3], the target named is T3, human recombinant adrenergic α2A receptor (Homo sapiens, UniProt P08913).
T3 construct: expressed in transfected cells; host or cells: insect Sf9 cells
T3 sequence (P08913 1-465): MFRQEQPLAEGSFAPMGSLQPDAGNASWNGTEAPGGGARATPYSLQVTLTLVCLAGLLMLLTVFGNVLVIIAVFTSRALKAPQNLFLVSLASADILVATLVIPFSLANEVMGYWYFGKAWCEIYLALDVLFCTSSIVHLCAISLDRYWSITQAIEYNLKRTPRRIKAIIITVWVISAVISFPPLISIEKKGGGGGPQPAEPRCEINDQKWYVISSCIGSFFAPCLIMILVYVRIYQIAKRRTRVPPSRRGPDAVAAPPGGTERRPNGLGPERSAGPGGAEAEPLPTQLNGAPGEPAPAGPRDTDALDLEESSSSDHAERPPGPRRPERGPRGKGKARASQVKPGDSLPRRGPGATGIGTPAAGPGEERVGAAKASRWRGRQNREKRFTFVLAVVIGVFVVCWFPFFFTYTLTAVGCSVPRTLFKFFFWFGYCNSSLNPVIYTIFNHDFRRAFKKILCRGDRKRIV
As to the kind of experiment: Adrenergic α2A radioligand binding ([3H]MK-912). The note with it: percent inhibition of specific binding. The arrangement: Inhibition of ligand binding, Adren. alpha2A: concentration or dose not given beside the values. In outline: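 Membranes from Sf9 cells expressing the receptor were incubated with 1 nM [3H]MK-912 for 60 minutes at 25° C in 50 mM Tris-HCl pH 7.4, 12.5 mM MgCl2, 2 mM EDTA. 10 μM WB-4101 defined non-specific binding. Values are percent inhibition of specific bound radioactivity after filtration.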

For assay [4], the system named is adrenergic receptors α1D, α2A, α2B; serotonin receptor 5-HT6; dopamine receptor D2L. As to the kind of experiment: Classification of compounds (Type 1-4) from receptor binding and neurite outgrowth.
The target in assay [5] is T4, human recombinant serotonin (5-Hydroxytryptamine) 5-HT6 receptor (Homo sapiens, UniProt P50406).
T4 construct: expressed in transfected cells; host or cells: human HeLa cells
T4 sequence (P50406 whole entry): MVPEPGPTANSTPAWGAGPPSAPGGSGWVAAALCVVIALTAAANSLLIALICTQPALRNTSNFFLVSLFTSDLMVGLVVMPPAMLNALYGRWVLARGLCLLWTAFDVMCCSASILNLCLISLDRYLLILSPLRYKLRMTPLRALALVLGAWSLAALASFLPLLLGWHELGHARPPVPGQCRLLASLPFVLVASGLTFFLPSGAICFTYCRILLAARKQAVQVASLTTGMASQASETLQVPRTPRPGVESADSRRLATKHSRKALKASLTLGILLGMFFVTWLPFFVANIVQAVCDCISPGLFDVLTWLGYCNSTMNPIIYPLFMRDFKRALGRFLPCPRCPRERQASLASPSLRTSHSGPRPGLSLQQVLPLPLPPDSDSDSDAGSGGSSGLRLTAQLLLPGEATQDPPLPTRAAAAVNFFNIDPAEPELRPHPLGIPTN
The experiment in a line: Serotonin 5-HT6 radioligand binding ([3H]LSD). Set-up: Inhibition of ligand binding, Ser. 5-HT6: concentration or dose not given beside the values. The note with it: percent inhibition of specific binding. The source says: Receptor proteins were filtered and washed, the filters were then counted to determine [3H]LSD specifically bound. […] Biochemical assay results are presented as the percent inhibition of specific binding in Table 6.

Each structure is given as a SMILES string.

For the molecule `Cc1ccc2c(c1)c1c(n2CCc2ccc(C(C)C)nc2)CCN(C)C1` [Compound 360, 5-[2-(6-Isopropyl-pyridin-3-yl)-ethyl]-2,8-dimethyl-2,3,4,5-tetrahydro-1H-pyrido[4,3-b]indole], the “Inhibition of ligand binding, Ser. 5-HT2C” value (shortened to “Inhibition … Ser. 5-HT2C”) in assay [1] amounted to 83%. Besides, the “Inhibition of ligand binding, Ser. 5-HT7” value in assay [2] was determined as 91%. Besides, in assay [3], the “Inhibition of ligand binding, Adren. alpha2A” value (from here on “Inhibition … Adren. alpha2A”) is 101%. Moreover, the “compound type (classification by receptor binding profile and neurite outgrowth)” value (“compound type” below) in assay [4] is recorded as “Type one”. Besides, the “Inhibition of ligand binding, Ser. 5-HT6” value in assay [5] was 91%.

`CN1CCc2c(c3cccc(Cl)c3n2CCc2ccccc2)C1` [Compound 83]: the “Inhibition … Ser. 5-HT2C” value in assay [1] is listed as 99%. Moreover, in assay [2], the “Inhibition of ligand binding, Ser. 5-HT7” value was 95%. Besides, the “Inhibition … Adren. alpha2A” value in assay [3] is 100%. Besides, the “compound type” value in assay [4] was “Type one”. Besides, the “Inhibition of ligand binding, Ser. 5-HT6” value in assay [5] turned out to be 106%.

Turning to `Cc1ccc2c(c1)c1c(n2CCc2ccc(C(F)(F)F)nc2)CCN(C)C1` [Compound 68], in assay [1], the “Inhibition … Ser. 5-HT2C” value came out at 78%. The “Inhibition of ligand binding, Ser. 5-HT7” value in assay [2] worked out at 103%. In addition, the “Inhibition … Adren. alpha2A” value in assay [3] amounted to 94%. Moreover, the “compound type” value in assay [4] is “Type one”. The “Inhibition of ligand binding, Ser. 5-HT6” value in assay [5] is 88%.

In the case of `CN1CCc2c(c3cc(Cl)ccc3n2CCc2ccc(F)cc2)C1` [Compound 162, 5-(4-fluorophenethyl)-8-chloro-2,3,4,5-tetrahydro-2-methyl-1H-pyrido[4,3-b]indole], in assay [1], the “Inhibition … Ser. 5-HT2C” value is given as 94%. Besides, the “Inhibition of ligand binding, Ser. 5-HT7” value in assay [2] is listed as 94%. Further, the “Inhibition … Adren. alpha2A” value in assay [3] was 99%. Moreover, the “compound type” value in assay [4] is recorded as “Type one”. In addition, in assay [5], the “Inhibition of ligand binding, Ser. 5-HT6” value stood at 99%.

As for `Cc1ccc(CCn2c3c(c4cc(C(F)(F)F)ccc42)CN(C)CC3)cc1` [Compound 47], the “Inhibition … Ser. 5-HT2C” value in assay [1] was 89%. In addition, in assay [2], the “Inhibition of ligand binding, Ser. 5-HT7” value was determined as 92%. Besides, in assay [3], the “Inhibition … Adren. alpha2A” value was found to be 98%. In assay [4], the “compound type” value is given as “Type one”. In assay [5], the “Inhibition of ligand binding, Ser. 5-HT6” value is 99%.

Regarding `CN1CCc2c(c3cc(Cl)ccc3n2CCc2ccc(Cl)cc2)C1` [Compound 45, 5-(4-chlorophenethyl)-8-chloro-2,3,4,5-tetrahydro-2-methyl-1H-pyrido[4,3-b]indole], in assay [1], the “Inhibition … Ser. 5-HT2C” value came to 97%. Also, the “Inhibition of ligand binding, Ser. 5-HT7” value in assay [2] was 99%. The “Inhibition … Adren. alpha2A” value in assay [3] is listed as 100%. Also, the “compound type” value in assay [4] was “Type one”. In assay [5], the “Inhibition of ligand binding, Ser. 5-HT6” value is listed as 103%.

`Cc1ccc(CCn2c3c(c4cc(Cl)ccc42)CN(C)CC3)cc1` [Compound 43]: in assay [1], the “Inhibition … Ser. 5-HT2C” value is reported as 100%. Also, the “Inhibition of ligand binding, Ser. 5-HT7” value in assay [2] is 92%. Also, the “Inhibition … Adren. alpha2A” value in assay [3] was 100%. For the same molecule, the “compound type” value in assay [4] is recorded as “Type one”. In addition, the “Inhibition of ligand binding, Ser. 5-HT6” value in assay [5] is listed as 102%.

As to `Cc1ccc(C(O)Cn2c3c(c4cc(C)ccc42)CN(C)CC3)cc1` (racemic) [Compound 28, racemic-2-(1,2,3,4-tetrahydro-2,8-dimethylpyrido[4,3-b]indol-5-yl)-1-p-tolylethanol], the “Inhibition … Ser. 5-HT2C” value in assay [1] came to 100%. Further, in assay [3], the “Inhibition … Adren. alpha2A” value is 100%. For the same molecule, the “compound type” value in assay [4] is “Type one”. In addition, the “Inhibition of ligand binding, Ser. 5-HT6” value in assay [5] came out at 99%.

With `CC(C)c1ccc(CCn2c3c(c4cc(Cl)ccc42)CN(C)CC3)cn1` [Compound 372, 8-Chloro-5-[2-(6-isopropyl-pyridin-3-yl)-ethyl]-2-methyl-2,3,4,5-tetrahydro-1H-pyrido[4,3-b]indole], the “Inhibition … Ser. 5-HT2C” value in assay [1] amounted to 77%. Further, the “Inhibition of ligand binding, Ser. 5-HT7” value in assay [2] amounted to 94%. In assay [3], the “Inhibition … Adren. alpha2A” value stood at 100%. Further, the “compound type” value in assay [4] was “Type one”. For the same molecule, the “Inhibition of ligand binding, Ser. 5-HT6” value in assay [5] stood at 88%.

Consider `CN1CCc2c(c3cc(Cl)ccc3n2CCc2cccnc2)C1` [Compound 55], for which, in assay [1], the “Inhibition … Ser. 5-HT2C” value is on record as 87%. Besides, in assay [3], the “Inhibition … Adren. alpha2A” value is 86%. Further, in assay [4], the “compound type” value is reported as “Type one”. Moreover, the “Inhibition of ligand binding, Ser. 5-HT6” value in assay [5] worked out at 94%.

On to `CN1CCc2c(c3cc(Cl)ccc3n2CCc2ccncc2)C1` [Compound 56], for which, in assay [1], the “Inhibition … Ser. 5-HT2C” value was found to be 87%. For the same molecule, the “Inhibition of ligand binding, Ser. 5-HT7” value in assay [2] is on record as 91%. In addition, the “Inhibition … Adren. alpha2A” value in assay [3] turned out to be 95%. In addition, in assay [4], the “compound type” value was “Type one”. The “Inhibition of ligand binding, Ser. 5-HT6” value in assay [5] was 102%.

Consider `CCCc1ccc(CCn2c3c(c4cc(C)ccc42)CN(C)CC3)cn1` [Compound 452, 2,8-Dimethyl-5-[2-(6-propyl-pyridin-3-yl)-ethyl]-2,3,4,5-tetrahydro-1H-pyrido[4,3-b]indole], for which the “Inhibition … Ser. 5-HT2C” value in assay [1] worked out at 93%. Further, in assay [2], the “Inhibition of ligand binding, Ser. 5-HT7” value was 96%. The “Inhibition … Adren. alpha2A” value in assay [3] was determined as 92%. In assay [4], the “compound type” value was “Type one”. Further, the “Inhibition of ligand binding, Ser. 5-HT6” value in assay [5] was 93%.

On to `Cc1ccc2c(c1)c1c(n2CCc2cccnc2)CCN(C)C1` [Compound 60], for which the “Inhibition … Ser. 5-HT2C” value in assay [1] worked out at 90%. Further, the “Inhibition … Adren. alpha2A” value in assay [3] is recorded as 84%. Also, in assay [4], the “compound type” value is “Type one”. For the same molecule, the “Inhibition of ligand binding, Ser. 5-HT6” value in assay [5] came out at 91%.

Take `Cc1ccc2c(c1)c1c(n2CC(C)c2ccc(F)cc2)CCN(C)C1` (stereo not drawn) [Compound 456, 5-(2-(4-fluorophenyl)propyl)-2,3,4,5-tetrahydro-2,8-dimethyl-1H-pyrido[4,3-b]indole]: in assay [1], the “Inhibition … Ser. 5-HT2C” value is 99%. For the same molecule, the “Inhibition … Adren. alpha2A” value in assay [3] amounted to 106%. Also, the “compound type” value in assay [4] was “Type one”. Moreover, in assay [5], the “Inhibition of ligand binding, Ser. 5-HT6” value worked out at 98%.

(Values after patent US9096591B2, “Tetracyclic compounds” (Medivation Technologies, Inc., priority 2007, dated 2015).)
